The values below come from patent publication US20220332839A1, “USE OF PRG4 TO TREAT CANCER” (Lubris LLC, priority 2019, published 2022).

Type in all cases: cell-based, human
For assay [1], the system named is MDA-MB-231 cell-derived organoids. As to the kind of experiment: Three-dimensional Matrigel culture, proportion of spherical vs invasive organoids. Here is the method:
For three-dimensional culture assays, 50 μl of ice-cooled 33% growth factor-reduced Matrigel (Corning Incorporated, USA) in complete growth medium, consisting of DMEM containing 10% FBS, penicillin, streptomycin and amphotericin B (Invitrogen, Canada), was added per well of a 96-well flat bottom, ultra-low attachment plate (BD Biosciences, Canada) followed by storing the plate for 1 hour in a 5% CO2 humidified incubator at 37° C. to allow formation of a 1 mm-thick Matrigel bed in the well. Next, approximately 400 isolated MDA-MB-231 cells, suspended in 50 μl ice-cooled 50% Matrigel in complete growth medium, were layered on top of the Matrigel bed per well of the 96-well plate and incubated inside 5% CO2 humidified incubator at 37° C. One hour post addition and 37° C. incubation of Matrigel-cells suspension, 50 μl of complete growth medium was added to cover the solidified Matrigel-cells mixture. The following day and, every third day, the three-dimensional cultures received 50 μl of fresh complete growth medium without or with specified reagents as listed in the figure descriptions. On Day 8 of culture, differential interference contrast (DIC) images were captured of 8 representative organoids from each well, using light microscopy at 30× objective (Olympus IX70, Canada). […] Number of smooth surfaced organoids without any protrusions, designated as “spherical” were counted out of eight representative images in each well and then percentage of spherical organoids in each condition were plotted in bar graphs. Each experiment was performed at least three independent times for statistical analyses.

The next assay deals with HAS2. As to the kind of experiment: HAS2 protein abundance in MDA-MB-231 cells (immunoblot). As to conditions: 100 pM TGFβ; 100 μg/mL rhPRG4 in the absence or presence of TGFβ. As for the experimental part: Cells were washed with PBS to remove all growth media. Appropriate volume of TNTE lysis buffer (50 mM Tris, 150 mM NaCl, 1 mM EDTA, 0.5% [v/v] Triton-X-100) containing protease and phosphatase inhibitors, was added to the cell monolayer and incubated at 4° C. under vigorous shaking for 20 minutes. Lysates were then collected in microcentrifuge tubes and centrifuged at 13,000 g for 10 minutes at 4° C. 5 μL of the lysate were subjected to protein concentration determination using Bradford-based protein assays (Bio-Rad Laboratories, Canada). Lysates were boiled for 3 minutes at 95° C. in dithiothreitol (DTT)-containing Laemmli sample buffer. For immunoprecipitation analyses, lysates were incubated with appropriate antibodies at 4° C. with gentle rocking for 3 h after which immunocomplexes were incubated with Protein G-conjugated agarose beads (UBPBio, USA) at 4° C. with gentle rocking for 3 h. Finally, the beads were washed with TNTE wash buffer (0.1% [v/v] Triton-X-100) and boiled for 5 minutes at 95° C. in dithiothreitol (DTT) containing Laemmli sample buffer. Immunoprecipitates and input lysates were then resolved by sodium dodecyl sulfate-polyacrylamide electrophoresis (SDS-PAGE) and transferred onto a nitrocellulose membrane (Bio-Rad Laboratories, Canada). […] Densitometric analyses were performed using Quantity One software (Bio-Rad Laboratories, Canada).

Assay [2] has as its system MDA-MB-231 cells. Nature of the assay: In vitro scratch assay (migration). As to conditions: 36 h. Here is the method: 5×10^5 MDA-MB-231 cells were seeded in each well of a 12-well tissue culture plate and grown overnight to near confluency in complete growth medium and then overnight serum starved by incubating with 0.2% FBS-containing DMEM medium in a 5% CO2 humidified incubator at 37° C. incubator. […] Scratch closure in each well was followed by imaging the scratch and surrounding cells in each well at 3× objective of a DIC microscope (Olympus IX70) coupled to a digital camera at time 0 h and 36 h after initiating the scratch. Five images were captured along the vertical axis of the scratch for each experimental condition. The width of each scratch was measured at three different positions per image for a total of 15 measurements using ImageJ (National Institutes of Health, USA), and then averaged per experimental condition. The width average at 36 h was subtracted from the width average at 0 h and expressed relative to that at 0 h width for each experimental condition to obtain scratch closure, and expressed as percent scratch closure.

The subject of assay [3] is MDA-MB-231 cells. As to the kind of experiment: In vitro trans-well invasion assay. As for the experimental part:
Overnight 0.2% FBS-containing DMEM incubated, i.e. serum-starved, MDA-MB-231 cells were used for the transwell invasion using polycarbonate filters (24-well insert, pore size 8 μm; BD Biosciences, Canada). Prior to addition of cells, each insert was placed within a well of a 24-well tissue culture plate and equilibrated with 0.5 mL serum-free DMEM, added both to the upper and lower chambers at 37° C. for 2 h. The equilibration media was then gently removed and upper chamber surface of the insert was coated with 50 μL of 3% Matrigel and allowed to solidify at 37° C. for 1 h. 1×10^5 serum-starved MDA-MB-231 cells were resuspended in 0.5 mL of serum-free DMEM and added to the upper Matrigel-coated chamber. 500 μL complete growth medium alone or containing specific reagents, as described in the respective figure descriptions, was added to the lower chambers. Cells were allowed to invade the matrix for 12 h at 37° C. after which non-adherent cells were removed by PBS washing of cell layers on the upper chamber three times. During the second wash a cotton tip applicator was used to gently scrape away the adherent cells on the upper surface of the membrane. Invading cells were fixed by immersing the transwell inserts in 100% methanol for 10 minutes at −20° C., followed by staining with 0.5% crystal violet dye (EMD Millipore, Canada) for 1 h at room temperature. Eight randomly chosen fields of each stained membrane were imaged at 10× objective of a DIC microscope (Olympus IX70) coupled to a digital camera. Cell numbers were obtained by counting the number of crystal violet stained cells in each field using a handheld counter. The average cell numbers for all images per treatment conditions were calculated and used for further statistical analysis. Each experiment was performed at least three independent times.

For “TGFβ: recombinant human mature transforming growth factor beta (R&D systems) [reference compound]”, the “effect of TGFβ on LMWHA-induced invasive growth” value in assay [1] (100 pM TGFβ with LMWHA) is reported as “further enhanced the ability of LMWHA to induce invasive growth”. The “invasive growth of organoids, stimulus alone” value in assay [1] (100 pM TGFβ, LMWHA 10, 100 or 400 μg/mL, 8-day) is given as “promoted an invasive growth”. In addition, the “protein abundance of HAS2, immunoblotting” value in the assay on HAS2 is recorded as “increased the protein abundance of HAS2”. Besides, the “scratch closure, TGFβ vs control well” value in the assay with MDA-MB-231 cells [2] (100 pM TGFβ) is “increased the scratch closure process”. In addition, the “invasion of cells, stimulus alone vs untreated control” value in the assay on MDA-MB-231 cells [3] (100 pM TGFβ, 400 μg/mL LMWHA) is “promote the invasion of MDA-MB-231 cells”.
In the case of “rhPRG4: full-length recombinant human PRG4 (lubricin) glycoprotein produced by CHO-M cells; residues 25-1404 of SEQ ID NO:1”, the “TGFβ or LMWHA-induced invasive growth, vector control transfected cells” value in assay [1] (100 pM TGFβ or 400 μg/mL LMWHA, 100 μg/mL rhPRG4) is on record as “significantly reversed”. Moreover, in assay [1] (100 pM TGFβ, 8-day, rhPRG4 0.1, 10, 100 μg/mL, KI 10 μM, 4-MU 0.5 mM), the “TGFβ-induced invasive growth of organoids” value is on record as “drastically repress TGFβ-induced invasiveness”. Also, the “LMWHA-induced invasive growth of 4-MU-treated organoids” value in assay [1] (0.5 mM 4-MU, 400 μg/mL LMWHA, 100 μg/mL rhPRG4) was “suppressed LMWHA-induced invasive growth”. Further, the “LMWHA-induced invasive growth of organoids” value in assay [1] (LMWHA 10-400 μg/mL, 100 μg/mL rhPRG4, KI 10 μM) was “suppressed the ability of LMWHA to promote the invasive growth”. Moreover, the “TGFβ and LMWHA-induced invasive growth of organoids” value in assay [1] (LMWHA 100 or 400 μg/mL, 100 pM TGFβ, CD44 antibody 2.5 μg/mL, rhPRG4 100 μg/mL) is “suppressed TGFβ and LMWHA-induced invasive growth”. Besides, in assay [1] (Matrigel mixed with 100 μg/mL rhPRG4, 100 pM TGFβ), the “TGFβ-induced invasive growth, rhPRG4 applied to the Matrigel prior to culture” value was “sufficient to suppress TGFβ-induced invasive growth”. For the same substance, the “invasive growth promoted by overexpressed CD44/FLAG” value in assay [1] (absence or presence of TGFβ or LMWHA, 100 μg/mL rhPRG4) is “suppressed the ability of overexpressed CD44 to promote invasive growth”. The “protein abundance of HAS2, immunoblotting” value in the assay on HAS2 is “suppressed the protein abundance of HAS2”. Moreover, the “scratch closure in the absence or presence of TGFβ” value in the assay with MDA-MB-231 cells [2] (100 μg/mL rhPRG4) is on record as “significantly delayed the scratch closure process”. Besides, in the assay on MDA-MB-231 cells [3] (100 μg/mL rhPRG4, 100 pM TGFβ, 12 h), the “invasion of cells in the absence or presence of TGFβ” value is “blocked the ability of MDA-MB-231 cells to be invasive”. Further, the “cell invasion in the presence of LMWHA” value in the assay on MDA-MB-231 cells [3] (400 μg/mL LMWHA, 5 μg/mL CD44 neutralizing antibody, 100 μg/mL rhPRG4) is reported as “able to inhibit breast cancer cell invasion”.
